Where two headings read alike, the source gives them in different places.
Tests used:
[1] = molecular target: c-Mer (Homo sapiens (Human), UniProt Q12866); assay: TAM Kinase Assay (HTRF), c-Mer; format: biochemical
Procedure: (§1) 0.1 ul test compounds dissolved in DMSO were transferred from compound plates to white 384-well assay plates (Greiner [sequence] plates). […] The plate was protected from light and incubated at room temperature for 60 min.

[2] = molecular target: phosphor-Axl (Homo sapiens (Human), UniProt P30530); assay: TAM Kinase Assay (HTRF), phosphor-Axl; format: biochemical; settings: read-out: Phospho-Axl IC50;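 also: test enzyme was recombinant Axl protein, pre-activated by autophosphorylation with ATP and MgCl2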
Procedure: Autophosphorylation of Axl was carried out by incubating the recombinant Axl protein (Life Technologies, PV4275) in buffer containing 50 mM Tris, pH7.5, 0.2 mg/ml Axl, 5 mM ATP, 20 mM MgCl2 and 2 mM DTT at room temperature for 1 hour.
as §1

[3] = molecular target: Tyro3 (Homo sapiens (Human), UniProt Q06418); assay: TAM Kinase Assay (HTRF), Tyro3; format: biochemical; settings: 0.366 nM Tyro3, HTRF, 60 min room temperature; read-out: Tyro3IC50
Tyro3, sequence (Q06418 41-890): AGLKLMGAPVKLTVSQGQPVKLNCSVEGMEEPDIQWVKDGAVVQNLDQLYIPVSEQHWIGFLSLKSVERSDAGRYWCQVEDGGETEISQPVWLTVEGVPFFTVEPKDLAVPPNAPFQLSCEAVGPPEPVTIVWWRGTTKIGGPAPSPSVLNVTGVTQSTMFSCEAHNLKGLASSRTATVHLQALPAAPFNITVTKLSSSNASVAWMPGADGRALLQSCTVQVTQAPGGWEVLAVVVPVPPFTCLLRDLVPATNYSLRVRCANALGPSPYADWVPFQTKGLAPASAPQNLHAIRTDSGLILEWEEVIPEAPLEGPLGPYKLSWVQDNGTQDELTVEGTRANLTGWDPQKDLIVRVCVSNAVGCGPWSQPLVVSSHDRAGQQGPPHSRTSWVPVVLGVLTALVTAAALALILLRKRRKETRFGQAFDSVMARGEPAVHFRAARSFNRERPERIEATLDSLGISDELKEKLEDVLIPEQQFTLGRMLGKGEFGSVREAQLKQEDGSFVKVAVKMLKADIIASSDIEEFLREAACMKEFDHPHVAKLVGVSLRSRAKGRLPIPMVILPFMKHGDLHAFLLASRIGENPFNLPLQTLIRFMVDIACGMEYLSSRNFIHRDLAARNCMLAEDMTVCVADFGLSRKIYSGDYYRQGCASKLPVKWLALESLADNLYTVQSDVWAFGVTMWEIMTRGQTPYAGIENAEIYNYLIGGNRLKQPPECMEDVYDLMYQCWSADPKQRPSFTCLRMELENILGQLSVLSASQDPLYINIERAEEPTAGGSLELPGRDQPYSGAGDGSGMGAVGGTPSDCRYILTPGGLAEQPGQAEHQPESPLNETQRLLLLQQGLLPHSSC
Procedure: as §1

[4] = molecular target: PI3Kδ (Homo sapiens (Human), UniProt O00329); settings: cited from earlier work
PI3Kδ, sequence (O00329 whole entry, looked up, species assumed): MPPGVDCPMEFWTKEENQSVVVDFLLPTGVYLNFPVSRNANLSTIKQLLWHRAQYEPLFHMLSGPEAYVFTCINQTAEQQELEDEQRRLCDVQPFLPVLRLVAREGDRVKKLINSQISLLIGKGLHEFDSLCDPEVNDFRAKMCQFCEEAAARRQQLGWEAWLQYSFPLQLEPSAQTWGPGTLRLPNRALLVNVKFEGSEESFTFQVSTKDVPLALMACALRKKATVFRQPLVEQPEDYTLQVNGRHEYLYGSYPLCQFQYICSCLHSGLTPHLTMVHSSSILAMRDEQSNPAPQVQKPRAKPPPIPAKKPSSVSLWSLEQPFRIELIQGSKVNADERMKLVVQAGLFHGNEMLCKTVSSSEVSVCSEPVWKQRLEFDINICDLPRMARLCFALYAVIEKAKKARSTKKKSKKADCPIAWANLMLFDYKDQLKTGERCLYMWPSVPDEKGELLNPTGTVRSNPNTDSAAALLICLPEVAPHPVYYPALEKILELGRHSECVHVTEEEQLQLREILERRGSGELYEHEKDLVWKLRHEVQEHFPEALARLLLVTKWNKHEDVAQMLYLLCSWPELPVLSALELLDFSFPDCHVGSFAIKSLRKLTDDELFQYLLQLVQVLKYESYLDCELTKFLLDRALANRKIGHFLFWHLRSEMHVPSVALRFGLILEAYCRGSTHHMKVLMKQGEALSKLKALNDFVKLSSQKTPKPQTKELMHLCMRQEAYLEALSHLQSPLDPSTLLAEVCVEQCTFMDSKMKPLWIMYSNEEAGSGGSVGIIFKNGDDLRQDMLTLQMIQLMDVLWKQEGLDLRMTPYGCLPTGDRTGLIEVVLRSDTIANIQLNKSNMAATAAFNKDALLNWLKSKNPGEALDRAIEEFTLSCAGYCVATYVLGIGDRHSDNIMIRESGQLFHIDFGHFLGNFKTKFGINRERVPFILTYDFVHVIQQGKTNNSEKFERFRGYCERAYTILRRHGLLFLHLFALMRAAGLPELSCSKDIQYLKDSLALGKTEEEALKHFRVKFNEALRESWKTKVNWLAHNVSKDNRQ
PI3Kδ, sequence (P27986 whole entry partner, looked up, species assumed): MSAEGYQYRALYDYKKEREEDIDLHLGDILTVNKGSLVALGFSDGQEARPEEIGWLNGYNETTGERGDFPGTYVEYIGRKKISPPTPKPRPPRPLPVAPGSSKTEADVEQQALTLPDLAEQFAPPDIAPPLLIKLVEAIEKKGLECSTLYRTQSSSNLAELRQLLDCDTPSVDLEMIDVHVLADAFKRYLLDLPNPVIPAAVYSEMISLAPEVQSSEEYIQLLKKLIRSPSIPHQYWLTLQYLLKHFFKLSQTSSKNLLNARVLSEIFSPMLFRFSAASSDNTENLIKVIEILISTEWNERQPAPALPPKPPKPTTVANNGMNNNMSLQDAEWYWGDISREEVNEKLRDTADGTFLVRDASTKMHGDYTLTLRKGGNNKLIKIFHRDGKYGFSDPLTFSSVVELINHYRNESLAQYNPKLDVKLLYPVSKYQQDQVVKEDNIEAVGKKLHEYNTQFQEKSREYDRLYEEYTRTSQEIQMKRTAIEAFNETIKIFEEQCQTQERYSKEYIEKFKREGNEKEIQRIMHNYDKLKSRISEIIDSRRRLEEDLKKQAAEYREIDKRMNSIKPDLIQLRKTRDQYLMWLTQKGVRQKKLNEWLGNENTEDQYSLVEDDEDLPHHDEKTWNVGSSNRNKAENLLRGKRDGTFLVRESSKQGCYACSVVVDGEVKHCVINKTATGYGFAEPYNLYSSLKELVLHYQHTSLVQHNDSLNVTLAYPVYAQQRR

[5] = molecular target: JAK2 (Homo sapiens (Human), UniProt O60674); settings: selectivity ratio, IC50 at 1 mM ATP; cited from earlier work
JAK2, sequence (O60674 whole entry, species assumed): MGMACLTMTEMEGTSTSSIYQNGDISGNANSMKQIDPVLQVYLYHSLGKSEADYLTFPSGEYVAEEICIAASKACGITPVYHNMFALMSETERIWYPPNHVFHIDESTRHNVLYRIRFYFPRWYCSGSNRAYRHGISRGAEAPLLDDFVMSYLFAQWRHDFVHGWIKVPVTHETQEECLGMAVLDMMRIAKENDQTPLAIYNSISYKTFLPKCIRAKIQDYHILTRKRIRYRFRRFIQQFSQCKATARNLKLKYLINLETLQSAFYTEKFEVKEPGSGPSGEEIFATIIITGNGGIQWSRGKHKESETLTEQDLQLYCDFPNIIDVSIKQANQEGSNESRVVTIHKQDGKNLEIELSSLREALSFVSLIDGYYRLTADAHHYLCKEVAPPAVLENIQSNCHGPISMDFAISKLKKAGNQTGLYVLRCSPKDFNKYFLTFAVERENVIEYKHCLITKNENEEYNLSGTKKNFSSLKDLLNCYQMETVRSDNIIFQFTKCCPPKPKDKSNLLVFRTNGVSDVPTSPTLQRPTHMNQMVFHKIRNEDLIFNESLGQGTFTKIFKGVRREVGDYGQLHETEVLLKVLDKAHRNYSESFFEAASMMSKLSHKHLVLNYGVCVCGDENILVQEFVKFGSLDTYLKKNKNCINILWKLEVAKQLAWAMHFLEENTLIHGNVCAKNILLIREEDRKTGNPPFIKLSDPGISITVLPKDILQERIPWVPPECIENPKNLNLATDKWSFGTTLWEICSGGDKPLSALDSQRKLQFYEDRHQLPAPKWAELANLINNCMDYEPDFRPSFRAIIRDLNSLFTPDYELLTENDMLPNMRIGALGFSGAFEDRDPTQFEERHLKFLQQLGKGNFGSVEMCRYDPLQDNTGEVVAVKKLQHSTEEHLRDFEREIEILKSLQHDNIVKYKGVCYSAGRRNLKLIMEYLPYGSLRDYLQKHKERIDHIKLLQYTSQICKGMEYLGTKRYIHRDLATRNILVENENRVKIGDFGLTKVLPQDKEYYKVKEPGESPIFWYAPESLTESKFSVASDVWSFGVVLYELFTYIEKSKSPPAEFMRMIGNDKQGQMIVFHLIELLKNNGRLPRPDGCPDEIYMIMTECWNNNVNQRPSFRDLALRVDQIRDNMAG

[6] = molecular target: JAK1 (Homo sapiens (Human), UniProt P23458); settings: cited from earlier work
[7] = test system: NK cells; settings: cited from earlier work
[8] = test system: tumor models with different histologies; settings: cited from earlier work
[9] = 0.0625 nM c-Mer, HTRF, 60 min room temperature, read-out: c-Mer IC50
[10] = 5.1 nM phosphor-Axl, HTRF, 60 min room temperature

phosphor-Axl, sequence (P30530 26-894): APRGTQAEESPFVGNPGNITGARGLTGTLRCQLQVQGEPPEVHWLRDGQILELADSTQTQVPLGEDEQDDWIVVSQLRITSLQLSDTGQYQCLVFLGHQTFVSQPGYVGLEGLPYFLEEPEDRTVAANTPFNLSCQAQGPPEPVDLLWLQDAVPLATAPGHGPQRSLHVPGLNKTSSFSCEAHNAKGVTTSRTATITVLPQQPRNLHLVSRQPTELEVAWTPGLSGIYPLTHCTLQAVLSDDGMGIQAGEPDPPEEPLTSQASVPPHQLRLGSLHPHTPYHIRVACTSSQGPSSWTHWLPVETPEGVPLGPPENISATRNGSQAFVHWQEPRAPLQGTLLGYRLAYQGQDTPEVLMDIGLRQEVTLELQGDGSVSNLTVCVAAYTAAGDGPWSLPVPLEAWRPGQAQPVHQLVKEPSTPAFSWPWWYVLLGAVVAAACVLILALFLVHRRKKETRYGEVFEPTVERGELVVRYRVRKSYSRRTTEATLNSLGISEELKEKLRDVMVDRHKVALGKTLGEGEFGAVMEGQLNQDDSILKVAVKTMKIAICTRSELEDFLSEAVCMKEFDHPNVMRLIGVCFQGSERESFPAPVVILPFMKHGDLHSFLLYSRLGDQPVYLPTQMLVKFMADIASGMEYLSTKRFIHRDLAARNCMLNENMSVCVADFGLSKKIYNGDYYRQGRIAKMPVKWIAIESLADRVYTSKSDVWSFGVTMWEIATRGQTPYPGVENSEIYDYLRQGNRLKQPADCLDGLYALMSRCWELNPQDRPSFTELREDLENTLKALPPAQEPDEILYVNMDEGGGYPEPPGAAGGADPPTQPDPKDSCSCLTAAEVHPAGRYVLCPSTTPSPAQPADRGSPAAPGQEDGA

IC50 [1, 9] [µM]	IC50 [2, 10] [µM]	IC50 [3] [µM]	SMILES	further results
< 0.5	< 0.5	> 3	NCC1(c2cc(-c3ncnc4[nH]ccc34)cc(Cl)n2)Cc2ccccc2C1 [Example 7, 1-{2-[6-Chloro-4-(7H-pyrrolo[2,3-d]pyrimidin-4-yl)pyridin-2-yl]-2,3-dihydro-1H-inden-2-yl}methanamine]	
< 0.5	< 0.5	> 3	COC(=O)NCC1(c2cccc(-c3ncnc4[nH]ccc34)c2)Cc2ccccc2C1 [Example 22, Methyl ({2-[3-(7H-pyrrolo[2,3-d]pyrimidin-4-yl)phenyl]-2,3-dihydro-1H-inden-2-yl}methyl)carbamate]	
< 0.5	< 0.5	1 to 3	NCC1(c2cccc(-c3ncnc4[nH]ccc34)c2)Cc2ccccc2C1 [Example 11, 1-{2-[3-(7H-Pyrrolo[2,3-d]pyrimidin-4-yl)phenyl]-2,3-dihydro-1H-inden-2-yl}methanamine]	
		> 3	O=C(NCC1(c2cccc(-c3ncnc4[nH]ccc34)c2)Cc2ccccc2C1)c1ccco1 [Example 34, N-({2-[3-(7H-Pyrrolo[2,3-d]pyrimidin-4-yl)phenyl]-2,3-dihydro-1H-inden-2-yl}methyl)-2-furamide]	IC50 [4]: 0.05 to 0.1 µM
> 3	1 to 3	> 3	COCC1(c2cccc(-c3ncnc4[nH]ccc34)c2)Cc2ccccc2C1 [Example 25, 4-{3-[2-(Methoxymethyl)-2,3-dihydro-1H-inden-2-yl]phenyl}-7H-pyrrolo[2,3-d]pyrimidine]	
> 3	> 3	> 3	FCC1(c2cccc(-c3ncnc4[nH]ccc34)c2)Cc2ccccc2C1 [Example 19, 4-{3-[2-(Fluoromethyl)-2,3-dihydro-1H-inden-2-yl]phenyl}-7H-pyrrolo[2,3-d]pyrimidine]	
> 3	> 3	> 3	O=C(NCC1(c2cccc(-c3ncnc4[nH]ccc34)c2)Cc2ccccc2C1)c1ccno1 [Example 31, N-({2-[3-(7H-Pyrrolo[2,3-d]pyrimidin-4-yl)phenyl]-2,3-dihydro-1H-inden-2-yl}methyl)isoxazole-5-carboxamide]	
< 0.5	< 0.5	1 to 3	NCC1(c2cccc(-c3ncnc4[nH]ccc34)c2)Cc2ccncc2C1 (stereo not drawn) [Example 5, 1-{6-[3-(7H-Pyrrolo[2,3-d]pyrimidin-4-yl)phenyl]-6,7-dihydro-5H-cyclopenta[c]pyridin-6-yl}methanamine]	
< 0.5	< 0.5	1 to 3	NCC1(c2cc(-c3ncnc4[nH]ccc34)ccn2)Cc2ccccc2C1 [Example 3, 1-{2-[4-(7H-Pyrrolo[2,3-d]pyrimidin-4-yl)pyridin-2-yl]-2,3-dihydro-1H-inden-2-yl}methanamine]	
< 0.5	< 0.5	> 3	NCC1(c2cncc(-c3ncnc4[nH]ccc34)c2)Cc2ccccc2C1 [Example 1, 1-{2-[5-(7H-Pyrrolo[2,3-d]pyrimidin-4-yl)pyridin-3-yl]-2,3-dihydro-1H-inden-2-yl}methanamine]	
			N#CCC1(n2cc(-c3ncnc4[nH]ccc34)cn2)CN(C2CCN(C(=O)c3ccnc(C(F)(F)F)n3)CC2)C1 [Compound 9, [3-[4-(7H-pyrrolo[2,3-d]pyrimidin-4-yl)-1H-pyrazol-1-yl]-1-(1-{[2-(trifluoromethyl)pyrimidin-4-yl]carbonyl}piperidin-4-yl)azetidin-3-yl]acetonitrile, reference compound]	JAK2/JAK1 [5]: >10
> 3	1 to 3	> 3	O=C(NCC1(c2cccc(-c3ncnc4[nH]ccc34)c2)Cc2ccccc2C1)c1cccs1 [Example 28]	
< 0.5	< 0.5	> 3	CN(C)CC1(c2cccc(-c3ncnc4[nH]ccc34)c2)Cc2ccccc2C1 [Example 23, N,N-Dimethyl-1-{2-[3-(7H-pyrrolo[2,3-d]pyrimidin-4-yl)phenyl]-2,3-dihydro-1H-inden-2-yl}methanamine]	
0.5 to 1	0.5 to 1	> 3	NCC1(c2ccnc(-c3ncnc4[nH]ccc34)c2)Cc2ccccc2C1 [Example 4, 1-{2-[2-(7H-Pyrrolo[2,3-d]pyrimidin-4-yl)pyridin-4-yl]-2,3-dihydro-1H-inden-2-yl}methanamine]	
	1 to 3	> 3	CC(=O)NCC1(c2cc(-c3ncnc4[nH]ccc34)ccn2)Cc2ccccc2C1 [Example 8, N-({2-[4-(7H-Pyrrolo[2,3-d]pyrimidin-4-yl)pyridin-2-yl]-2,3-dihydro-1H-inden-2-yl}methyl)acetamide]	
	< 0.5	> 3	O=C(NCC1(c2cccc(-c3ncnc4[nH]ccc34)c2)Cc2ccccc2C1)C1CCCC1 [Example 27, N-({2-[3-(7H-Pyrrolo[2,3-d]pyrimidin-4-yl)phenyl]-2,3-dihydro-1H-inden-2-yl}methyl)cyclopentanecarboxamide]	
> 3	> 3	> 3	FC(F)C1(c2cccc(-c3ncnc4[nH]ccc34)c2)Cc2ccccc2C1 [Example 20, 4-{3-[2-(Difluoromethyl)-2,3-dihydro-1H-inden-2-yl]phenyl}-7H-pyrrolo[2,3-d]pyrimidine]	
< 0.5	< 0.5	> 3	NCC1(c2cccc(-c3ncnc4[nH]ccc34)c2)Cc2cccnc2C1 (stereo not drawn) [Example 6, 1-{6-[3-(7H-Pyrrolo[2,3-d]pyrimidin-4-yl)phenyl]-6,7-dihydro-5H-cyclopenta[b]pyridin-6-yl}methanamine]	
< 0.5	< 0.5	> 3	CC(=O)NCC1(c2cccc(-c3ncnc4[nH]ccc34)c2)Cc2ccccc2C1 [Example 16, N-({2-[3-(7H-Pyrrolo[2,3-d]pyrimidin-4-yl)phenyl]-2,3-dihydro-1H-inden-2-yl}methyl)acetamide]	
< 0.5	< 0.5	> 3	O=C(NCC1(c2cccc(-c3ncnc4[nH]ccc34)c2)Cc2ccccc2C1)C1CC1 [Example 18, N-({2-[3-(7H-Pyrrolo[2,3-d]pyrimidin-4-yl)phenyl]-2,3-dihydro-1H-inden-2-yl}methyl)cyclopropanecarboxamide]	
< 0.5	< 0.5	> 3	CNCC1(c2cccc(-c3ncnc4[nH]ccc34)c2)Cc2ccccc2C1 [Example 24, N-Methyl-1-{2-[3-(7H-pyrrolo[2,3-d]pyrimidin-4-yl)phenyl]-2,3-dihydro-1H-inden-2-yl}methanamine]	
< 0.5	< 0.5	> 3	OCC1(c2cccc(-c3ncnc4[nH]ccc34)c2)Cc2ccccc2C1 [Example 12, {2-[3-(7H-Pyrrolo[2,3-d]pyrimidin-4-yl)phenyl]-2,3-dihydro-1H-inden-2-yl}methanol]	
			CCOc1cn(-c2ccc(F)cc2C)nc1C(=O)Nc1ccc(Oc2ccnc3cc(OC)c(OC)cc23)c(F)c1 [LDC1267]	activation of NK cells [7]: activates NK cells; metastasis in tumor models [8]: blocks metastasis
1 to 3	0.5 to 1	> 3	CS(=O)(=O)NCC1(c2cccc(-c3ncnc4[nH]ccc34)c2)Cc2ccccc2C1 [Example 21, N-({2-[3-(7H-Pyrrolo[2,3-d]pyrimidin-4-yl)phenyl]-2,3-dihydro-1H-inden-2-yl}methyl)methanesulfonamide]	
	1 to 3	> 3	CC(=O)NCC1(c2cccc(-c3ncnc4[nH]ccc34)c2)Cc2ccncc2C1 (stereo not drawn) [Example 10, N-({6-[3-(7H-Pyrrolo[2,3-d]pyrimidin-4-yl)phenyl]-6,7-dihydro-5H-cyclopenta[c]pyridin-6-yl}methyl)acetamide]	
1 to 3	1 to 3	> 3	NCC1(c2cccc(-c3ncnc4[nH]ccc34)n2)Cc2ccccc2C1 [Example 2, 1-{2-[6-(7H-Pyrrolo[2,3-d]pyrimidin-4-yl)pyridin-2-yl]-2,3-dihydro-1H-inden-2-yl}methanamine]	
< 0.5	< 0.5	> 3	CC(C)C(=O)NCC1(c2cccc(-c3ncnc4[nH]ccc34)c2)Cc2ccccc2C1 [Example 17, 2-Methyl-N-({2-[3-(7H-pyrrolo[2,3-d]pyrimidin-4-yl)phenyl]-2,3-dihydro-1H-inden-2-yl}methyl)propanamide]	

SMILES	IC50 [1, 9] [µM]	IC50 [2, 10] [µM]	IC50 [3] [µM]	further results
Cn1cc(C(=O)NCC2(c3cccc(-c4ncnc5[nH]ccc45)c3)Cc3ccccc3C2)cn1 [Example 33, 1-Methyl-N-({2-[3-(7H-pyrrolo[2,3-d]pyrimidin-4-yl)phenyl]-2,3-dihydro-1H-inden-2-yl}methyl)-1H-pyrazole-4-carboxamide]			> 3	IC50 [1]: > 3 µM; IC50 [2]: > 3 µM
O=C(NCC1(c2cccc(-c3ncnc4[nH]ccc34)c2)Cc2ccccc2C1)C1CCC1 [Example 26, N-({2-[3-(7H-Pyrrolo[2,3-d]pyrimidin-4-yl)phenyl]-2,3-dihydro-1H-inden-2-yl}methyl)cyclobutanecarboxamide]		< 0.5	> 3	IC50 [6]: < 0.01 µM; JAK2/JAK1 [5]: >10
